Assays:
[1] = test system: HeLa cells in comparison to HFF1 cells; experiment: Percentage of cells in mitosis, 8 hours; assay type: cell-based; conditions: nanomolar range
Method: FIG. 1A) is a line graph showing changes in the percentage of viable HFF-1, HeLa, A549 and HCT 116 cells after treatment with a range of C75 concentrations for 3 population doubling times (N=3). […] There were more rounded mitotic cells after C75 treatment in comparison to the control. FIG. 1C) is a line graph showing the percentage of HeLa and HFF1 cells in mitosis after treatment with various concentrations of C75 for 8 hours. The bars indicate standard deviation. FIG. 1D) is a series of images showing cells that were fixed and co-stained for tubulin (microtubules) and DAPI (DNA). Treatment of HeLa cells with 300 nM C75 caused the mitotic spindles to be disorganized, while they were not affected in HFF1 cells. […] The scale bar for the cells is 10 μm. […] FIG. 1F) is a cartoon schematic showing the key features of a metaphase cell.
The images in FIG. 1B) show fields of view of HeLa cells treated with (dimethyl sulfoxide) DMSO or 500 nM of C75. […] Higher concentrations of C75 caused spindle phenotypes in HFF1 cells, but they were quite different in comparison to HeLa cells (FIG. 1D).

HeLa cells = experiment: Percentage of mitotic cells, nocodazole +/- C75; assay type: cell-based, human; conditions: 200 nM C75 + 33 or 66 nM nocodazole
[2] = test system: H1299 (non-small cell lung cancer) cells; experiment: Mitotic arrest after one population doubling time; assay type: cell-based, human; conditions: H1299, least responsive
Source text: For each condition, 20,000 cells were counted per replicate (N=3). Line graphs (right) were made to better illustrate the relative changes in the cell cycle phases for the different treatments. Bars show standard deviation. The asterisks indicate the first statistically significant change in the G0/G1 and G2/M populations determined by a two-way ANOVA with a post-hoc Tukey's multiple comparisons test using 95% confidence intervals. FIG. 2B) is a line graph showing the percentage of HCT116 (p53−/−) cells, A549 cells, HeLa cells and H1299 cells in mitosis after treatment with various concentrations of C75 for one population doubling time. All of the cell lines show an increase in the proportion of mitotic cells after treatment with 200 nM C75. The bars indicate standard deviation. […]
C75 was also tested for efficacy in different cancer cell lines. […] To further assess the role of C75 in disrupting spindles, HeLa cells were treated with 300 nM C75 for 4 hours and the spindle phenotypes were analyzed in more detail (FIG. 2E). […] To assess the affect of C75 on centrosomes, HeLa cells were treated with C75 or nocodazole (a drug that causes microtubule depolymerization as a control) for a short period of time (5 minutes), then the drugs were removed and the cells were analyzed for spindle phenotypes (schematic in FIG. 2G). […]

COc1ccc(S(=O)(=O)N2Cc3ccccc3-c3sc(Br)cc32)cc1 [Compound C75]
mitotic arrest in HeLa vs HFF1 [1]: selectively causes mitotic arrest | change in proportion of mitotic cells (HeLa cells): large change | concentration at which mitotic cells show a small increase [2]: 200 nM

— patent US20200276181A1, “THIENOISOQUINOLINES AND THEIR DERIVATIVES FOR TARGETING TUBULIN, CH-TOG, AURORA A KINASE, TPX2, CDK5RAP2 AND/OR ASPM” (VALORBEC, SEC, priority 2017, published 2020)
